≈ marks a conversion by molar mass, not a printed value.
Assays:
[1] = tested on: passive cutaneous anaphylaxis (PCA) reaction; experiment: Inhibitory activity against homologous PCA reaction in rats; assay type: in vivo, male Wistar rats; conditions: Rattus norvegicus, 100 mg/kg, oral, 1 hour before antigen, read-out: Inhibition rate (PCA reaction)
Protocol: (1) Inhibitory activity against homologous PCA reaction in rats
Antiserum was prepared according to I. Mota [Immunology, 7, 681(1964)]and the PCA reaction was conducted according to Maruyama et al. [Folia Pharmacologica Japonica, 74, 179(1978}].
An ovalbumin solution dissolved in physiological saline (2 mg/ml) was injected intramuscularly into both thighs of male Wistar rats weighing 200 to 260 g in a volume of 0.5 ml/100 g body weight, and pertussis vaccine (Bordetella pertussis, 2×10^10 /ml/ Chiba Serum Institute) was intraperitoneally administered at 1 ml/rat. Twelve days after sensitization, blood was taken from posterior aorta under ether anesthesia and serum was separated and stored at -80° C.
In each group, 4 male Wistar rats weighing 180 to 210 g were used. Back of the rats was shaved and reach 0.05 ml of antiserum diluted 32 times with physiological saline was injected intradermally at four sites on the back. After 48 hours, 1 ml of a mixture of ovalbumin (2 mg/ml) as an antigen and Evans blue (10 mg/ml) in the volume ratio of 1 : 1, which was dissolved in physiological saline was injected intravenously into the tail. Thirty minutes later, the rats were bled to death under ether anesthesia and the back skin of the rats was removed. The blue-dyed area formed by pigment exudation was measured and an inhibition rate (%) was calculated as compared with control according to the following equation. [formula]
A test compound suspended in a 2.5 % aqueous solution of gum arabic containing 0.2 % Tween 80 was administered orally in a volume of 0.5 m:/100 g body weight 1 hour before the injection of antigen. To the control group, only the vehicle was administered. Tranilast which was a positive control compound was administered orally 30 minutes before the injection of antigen.

[2] = tested on: Nycobacterium smegmatis ATCC 607; experiment: Antibacterial activity (MIC) against acid-fast bacteria; assay type: cell-based; conditions: 37° C., 40 to 42 hours
Protocol: As for acid-fast bacteria, after cultured in glycerol broth medium, there was prepared a bacterial suspension for inoculation containing about 10^6 of the bacteria per 1 ml of the medium. On the other hand, there were prepared some glycerol Czapek agar plating media with adding the test compounds, and thereto the bacterial suspension for inoculation was streaked.

[3] = tested on: antigen-induced airway constriction; experiment: Inhibitory activity against antigen-induced airway constriction in actively sensitized guinea pigs; assay type: in vivo; conditions: Cavia porcellus, read-out: Inhibition rate (airway constriction)
Protocol: (3) Inhibitory activity against antigen-induced airway constriction in actively sensitized guinea pigs
That is, the sensitized guinea pigs (5 guinea pigs/group) were provided with artificial respiration by inserting a tracheal cannula under urethane anesthesia (1.5 g/kg body weight, intraperitoneal administration), and then, gallamine at 1 mg/kg body weight was injected intravenously to stop spontaneous respiration of the guinea pigs. Inhalation of 0.5% aqueous solution of ovalbumin was conducted using a nebulizer for 1 minute to increase antigen-induced airway constriction, at the same time, airway pressure was recorded through a transducer. Test compound was administered into jugular vein (i.v.) of the guinea pig 3 minutes before the antigen inhalation or administered orally (p.o.) 2 hours before the antigen inhalation. As a positive control compound, theophylline which was a drug for anti-asthma was used. The effect of the compound was estimated by calculating the maximum value of airway constriction (%) in comparison with the control group, according to the following equation. [formula]

[4] = target: T1, reverse transcriptase derived from Moloney-Murine Leukemia Virus (M-MLV) (Moloney murine leukemia virus, UniProt P03355); experiment: Inhibiting activity against reverse transcriptase derived from M-MLV; assay type: biochemical; conditions: read-out: Inhibition rate (reverse transcriptase derived from M-MLV); for inhibition at 10 µM: 10 μM in the reaction mixture; for inhibition at 1 µM: 1 μM in the reaction mixture
T1 construct: reverse transcriptase derived from Moloney-Murine Leukemia Virus; purchased Pharmacia K. K
Protocol: There was found the following point by using reverse transcriptase derived from Moloney-Murine Leukemia Virus (hereinafter referred to as "M-MLV").
The compound of the present invention was dissolved in DMSO to give a 100 mM solution thereof. Then, the solution was diluted with distilled water containing DMSO to give a solution of the test compound having a defined concentration. A mixed ratio of DMSO and distilled water was adjusted so that the concentration of DMSO at this time is 10% by volume and a final concentration of DMSO at the beginning of a reaction is 1% by volume.
The thus prepared solution of the test compound was mixed with a solution containing 50 mM of Tris--HCl buffer (pH 8.3), 8 mM of MgCl2, 30 mM of NaCl, 50 mM of dithiothreitol (made by Wako Pure Chemical Industries Ltd.), 0.2 mM of thymidine-5'-triphosphate (made by Pharmacia K. K.) and 6 U/ml of reverse transciptase derived from M-MLV (made by Pharmacia K. K.), and preincubated at 37° C. for 30 minutes. After there was added thereto 10 μg/ml of polyadenylic acid (made by PL Biochemicals Co., Ltd.), 0.01 U/ml of oligodeoxy thymidylic acid (made by Pharmacia K. K.) and 10 μCi/ml of [methyl-^3 H] thymidine-5'-triphosphate (made by Amersham Japan Co., Ltd., 47 Ci/mmol) to give a reaction mixture, the mixture was further incubated at 37° C. for 30 minutes, followed by cooling with ice to stop the reaction.
The radioactivity incorporated into deoxyribonucleic acids was measured according to the method of Linteril et al (Science 170, 447 to 449 (1967)). A defined volume of the reaction mixture was soaked into DE-81 filter paper (made by Whatman Ltd.), the filter paper was washed with 5% by weight of Na2 HPO4 solution for three times, and with distilled water and ethanol successively, and then dried. Radioactivity contained in the filter paper was measured by liquid scintillation counter to give the each radioactivity of the test solution groups.
On the other hand, the same procedure as above was carried out using DMSO-distilled water without the test compound instead of using the test solution, to give the value of radioactivity of a control group.
Reverse transcriptase derived from M-MLV inhibition rate (%) was calculated by the following equation. [formula]

[5] = tested on: Staphylococcus aureus IFO 12732; experiment: Antibacterial activity (MIC) against Staphylococcus aureus IFO 12732; assay type: cell-based; conditions: IFO12732, 37° C., 18 to 20 hours
Protocol: (§1) The antibacterial activity against Gram-positive bacteria of the compound of the present invention was measured according to a standard method of Nippon Kagaku Ryoho Gakkai [Nippon Kagaku Ryoho Gakkaishi (Journal of the Chemical therapy of Japan), 29, 76(1981)].
(§2) As for gram-positive bacteria, after cultivation in Meuller Hinton broth medium (made by Difco Co., Ltd.), there was prepared a bacterial suspension for inoculation containing about 10^6 of the bacteria per 1 ml of the Meuller Hinton broth medium. On the other hand, the test compound was added to Mueller Hinton agar medium (made by Difco Co., Ltd.) so as to give agar plate medium containing test samples which are twofold serial diluted. Then, the above-mentioned bacterial suspension for inoculation was streaked to each agar medium for about 2 cm with a looped nichrome wire (inner diameter: about 1 mm).
(§3) After that the each agar plate medium was cultured at 37° C. for 18 to 20 hours, the growth of the test bacteria was determined.

[6] = tested on: Bacillus subtilis IFO 3134; experiment: Antibacterial activity (MIC) against Bacillus subtilis IFO 3134; assay type: cell-based; conditions: IFO3134, 37° C., 18 to 20 hours
Protocol: as §1, §2, §3

[7] = tested on: Micrococcus luteus IFO 13867; experiment: Antibacterial activity (MIC) against Micrococcus luteus IFO 13867; assay type: cell-based; conditions: IFO13867, 37° C., 18 to 20 hours
Protocol: as §1, §2, §3

[8] = iv, 3 minutes before antigen inhalation

| Compound | inhibition in vivo at 100 mg/kg [1] | MIC [2] | inhibition at 10 µM [4] | inhibition in vivo at 1 mg/kg [3, 8] | inhibition at 1 µM [4] | further results |
| --- | --- | --- | --- | --- | --- | --- |
| CC(C)c1cc(C=C2SC(NCc3ccccc3)=NC2=O)cc(C(C)C)c1O [Compound 33] | 50% | ≤ 15 µg/mL |  |  |  | inhibition in vivo at 2 mg/kg ([3]; iv, 2 mg/kg, 3 minutes before antigen inhalation): 26% |
| CC(C)c1cc(C=C2SC(NCc3ccc(F)cc3)=NC2=O)cc(C(C)C)c1O [Compound 35] | 43% | 15 µg/mL (≈ 36.4 µM) |  |  |  |  |
| CCCCOc1cc(C=C2SC(=S)NC2=O)cc(Cc2ccccc2)c1O [Compound 10] |  |  | 61% |  |  |  |
| CC(C)c1cc(C=C2SC(NCc3ccc(S(N)(=O)=O)cc3)=NC2=O)cc(C(C)C)c1O [Compound 41] | 25% | 25 µg/mL (≈ 52.8 µM) |  |  |  | MIC [5]: 50 µg/mL (≈ 106 µM); MIC [6]: 25 µg/mL (≈ 52.8 µM) |
| O=C1N=C(NCc2ccccc2)SC1=Cc1cc(Cc2ccccc2)c(O)c(Cc2ccccc2)c1 [Compound 26] |  |  | 76% | 68% |  |  |
| CC(C)c1cc(C=C2SC(NCc3ccc(Cl)c(Cl)c3)=NC2=O)cc(C(C)C)c1O [Compound 37] | 21% |  |  | 21% |  |  |
| O=C1Nc2ccccc2C1=Cc1cc(O)c(O)c(CSc2ccccc2)c1 [Compound 11] |  |  |  | 52% | 94% | MIC [5]: 25 µg/mL (≈ 66.6 µM); inhibition in vivo at 30 mg/kg ([3]; po, 30 mg/kg, 2 hours before antigen inhalation): 26%; MIC [7]: 12 µg/mL (≈ 32 µM); MIC [6]: ≤ 6 µg/mL |
| CC(C)c1cc(C=C2SC(NCc3ccc(N)cc3)=NC2=O)cc(C(C)C)c1O [Compound 42] |  | ≤ 15 µg/mL | 50% |  |  | inhibition in vivo at 5 mg/kg ([3]; iv, 5 mg/kg, 3 minutes before antigen inhalation): 33% |
| O=C1NN(c2ccccc2)C(=O)C1=Cc1cc(Cc2ccccc2)c(O)c(Cc2ccccc2)c1 [Compound 20] |  |  | 97% |  |  | MIC [5]: 100 µg/mL (≈ 217 µM); MIC [7]: ≤ 50 µg/mL; MIC [6]: 50 µg/mL (≈ 109 µM) |
| Cc1ccc(CNC2=NC(=O)C(=Cc3cc(C(C)C)c(O)c(C(C)C)c3)S2)cc1 [Compound 39] | 65% |  |  | 59% |  |  |
| O=C1NC(=S)SC1=Cc1cc(O)c(O)c(CSc2ccccc2)c1 [Compound 7] |  |  |  | 25% | 98% |  |
| O=C1NN(c2ccccc2)C(=O)C1=Cc1cc(O)c(O)c(Cc2ccccc2)c1 [Compound 24] |  |  |  |  | 91% |  |
| CCCCOc1cc(C=C2SC(=S)NC2=O)cc(CSc2ccccc2)c1O [Compound 9] |  |  |  | 20% | 73% |  |
| O=C1N=C(NCc2cccs2)SC1=Cc1cc(CSc2ccccc2)c(O)c(OCc2ccccc2)c1 [Compound 31] |  | ≤ 6 µg/mL | 61% |  |  |  |
| O=C1NC(=S)SC1=Cc1cc(CSc2ccccc2)c(O)c(OCc2ccccc2)c1 [Compound 8] |  |  |  | 43% | 98% |  |
| O=C1NC(=S)SC1=Cc1cc(Cc2ccccc2)c(O)c(Cc2ccccc2)c1 [Compound 2] |  |  |  |  | 95% | MIC [5]: 12 µg/mL (≈ 28.7 µM); MIC [7]: ≤ 6 µg/mL; MIC [6]: ≤ 6 µg/mL |
